Laboratory results taken from patent US7759291B2, “Pyrazole compounds and use thereof” (Sumitomo Chemical Company, Limited, priority 2004, dated 2010).

Key:
Tetranychus urticae = assay: Test Example 1: spray test against Tetranychus urticae on brush bean, Controlling Rate; type: in vivo; conditions: 200 ppm, 30 ml sprayed over brush bean (Phaseolus vulgaris) with female adults
Method: The formulation obtained according to Formulation Example 1 using the present invention compounds (1) to (30) and the comparative compound (a) described below respectively, was diluted with water so that the concentration of the present invention compound or the comparative compound came to 200 ppm. About twenty female adults of Tetranychus urticae were set free on brush bean (Phaseolus vulgaris) in the primary leaf stage, which had been potted in a plastic cup for 7 days after the seeding. After 1 day, a 30 ml of the diluted formulation described-above was sprayed over the plant. On the 8th and 13th day after the application, the numbers of lived Tetranychus urticae on the leaf of brush bean plant were examined, and the Controlling Rates were calculated by the following scheme. Controlling Rate=100×{1−(a number of lived Tetranychus urticae in the treatment)/(a number of lived Tetranychus urticae in the non-treatment)}

[1] = test system: Adoxophyes orana fasciata; assay: Test Example 2: spray test on apple seedling against first-instar larvae of Adoxophyes orana fasciata, rate of dead pests; type: in vivo; conditions: 200 ppm, 30 ml sprayed over apple seedling, 7th day after application
Method: The formulation obtained according to Formulation Example 1 using the present invention compound (25): [drawing 138] and the comparative compound (b) described below respectively, was diluted with water so that the concentration of the present invention compound or the comparative compound came to 200 ppm. 30 ml of the diluted formulation described above was sprayed over the seedling of apple, which had been potted in plastic cup for 28 days after seeding about 15 cm height. After the sprayed solution was dried, about sixty first-instar larvae of Adoxophyes orana fasciata were set free on the apple seedling. On the 7 th day after application, the number of surviving or dyed Adoxophyes orana fasciata on the apple seedling was examined, and the rate of dead pests was calculated.

| Structure (SMILES) | Controlling Rate (Tetranychus urticae; 8th day after the application) | Controlling Rate (Tetranychus urticae; 13th day after the application) | rate of dead pests [1] |
| --- | --- | --- | --- |
| Cc1nn(C)c(Oc2ccc(Oc3ccc(C(F)(F)F)cc3)cc2)c1C=NOCc1ccccc1 [comparative compound (a)] | less than 30% | less than 30% | – |
| C=CCOc1ccc(Oc2ccc(Oc3c(C)c(C)nn3C)cc2)cc1 [present invention compound (25)] | – | – | ≥ 90% |
| Cc1nn(C)c(Oc2ccc(Oc3ccc(C(F)(F)F)cc3)cc2)c1C=O [comparative compound (b)] | – | – | less than 80% |
